Source: US10039713B1, “Drug-loaded ganglioside micelle and the preparation method and use thereof” (Chongqing University, priority 2017, dated 2018)

Tested on: blood brain barrier
Test: Evaluation on intracranial blood brain barrier penetrating effect of a GM1 micelle (animal living body fluorescence imaging)
Format: in vivo
Settings: healthy mice, intravenous injection of tails, FIG. 2
Procedure: According to the preparation method of DOX-GM1 in the example 1, a fluorescent dye DiR-GM1 mixed micelle was prepared according to the same method. DiR-GM1 micelle and free-DiR were intravenous injected of tails of the healthy mice. The distribution and strength of the DiR fluorescence in tissues are observed and recorded by the animal living body imagery at different time points.

entry into the brain / blood-brain barrier penetration: cannot enter the brain
fluorescence distribution (DiR) in tissues (in-vivo imaging at different time points): concentrated in the liver
Compound: CCCCCCCCCCCCCCCCCCN1/C(=C/C=C/C=C/C=C/C2=[N+](CCCCCCCCCCCCCCCCCC)c3ccccc3C2(C)C)C(C)(C)c2ccccc21.[I-] [DiR solution]
